Measured values: ChEMBL document CHEMBL2203044, “Discovery of di-indolinone as a novel scaffold for protein tyrosine phosphatase 1B inhibitors” (Bioorg Med Chem Lett, 2012)

Assays:
[1] = target: T1, Tyrosine-protein phosphatase non-receptor type 1 (Homo sapiens, UniProt P18031); test: Inhibition of recombinant PTP1B using para-nitrophenylphosphate as substrate by high throughput screening assay
T1 sequence (P18031 whole entry): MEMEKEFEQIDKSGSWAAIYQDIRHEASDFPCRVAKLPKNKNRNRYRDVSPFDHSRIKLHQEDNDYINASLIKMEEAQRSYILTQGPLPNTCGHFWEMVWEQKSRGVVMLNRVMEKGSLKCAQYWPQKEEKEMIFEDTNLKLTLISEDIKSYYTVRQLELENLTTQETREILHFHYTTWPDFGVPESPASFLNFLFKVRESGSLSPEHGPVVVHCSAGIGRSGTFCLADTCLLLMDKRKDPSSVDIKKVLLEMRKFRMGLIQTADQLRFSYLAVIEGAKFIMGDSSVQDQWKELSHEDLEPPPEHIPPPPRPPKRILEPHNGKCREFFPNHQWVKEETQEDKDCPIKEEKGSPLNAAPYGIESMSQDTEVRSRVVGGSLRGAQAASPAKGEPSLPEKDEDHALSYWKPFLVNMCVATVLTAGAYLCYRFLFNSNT

[2] = target: T2, Tyrosine-protein phosphatase non-receptor type 2 (Homo sapiens, UniProt P17706); test: Inhibition of TCPTP
T2 sequence (P17706 whole entry): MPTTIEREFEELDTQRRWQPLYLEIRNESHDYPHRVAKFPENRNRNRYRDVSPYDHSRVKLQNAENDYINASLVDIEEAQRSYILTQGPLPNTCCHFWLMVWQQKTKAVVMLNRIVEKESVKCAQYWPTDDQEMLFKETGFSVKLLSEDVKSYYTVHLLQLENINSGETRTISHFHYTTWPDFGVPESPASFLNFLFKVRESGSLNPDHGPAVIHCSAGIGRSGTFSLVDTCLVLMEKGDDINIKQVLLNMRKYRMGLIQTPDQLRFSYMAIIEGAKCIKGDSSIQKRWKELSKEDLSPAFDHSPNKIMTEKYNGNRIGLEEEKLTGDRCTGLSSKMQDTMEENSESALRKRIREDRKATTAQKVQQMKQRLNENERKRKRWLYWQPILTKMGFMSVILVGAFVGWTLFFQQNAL

[3] = target: Receptor-type tyrosine-protein phosphatase F (Homo sapiens, UniProt P10586); test: Inhibition of LAR
Chain of Receptor-type tyrosine-protein phosphatase F (P10586 whole entry): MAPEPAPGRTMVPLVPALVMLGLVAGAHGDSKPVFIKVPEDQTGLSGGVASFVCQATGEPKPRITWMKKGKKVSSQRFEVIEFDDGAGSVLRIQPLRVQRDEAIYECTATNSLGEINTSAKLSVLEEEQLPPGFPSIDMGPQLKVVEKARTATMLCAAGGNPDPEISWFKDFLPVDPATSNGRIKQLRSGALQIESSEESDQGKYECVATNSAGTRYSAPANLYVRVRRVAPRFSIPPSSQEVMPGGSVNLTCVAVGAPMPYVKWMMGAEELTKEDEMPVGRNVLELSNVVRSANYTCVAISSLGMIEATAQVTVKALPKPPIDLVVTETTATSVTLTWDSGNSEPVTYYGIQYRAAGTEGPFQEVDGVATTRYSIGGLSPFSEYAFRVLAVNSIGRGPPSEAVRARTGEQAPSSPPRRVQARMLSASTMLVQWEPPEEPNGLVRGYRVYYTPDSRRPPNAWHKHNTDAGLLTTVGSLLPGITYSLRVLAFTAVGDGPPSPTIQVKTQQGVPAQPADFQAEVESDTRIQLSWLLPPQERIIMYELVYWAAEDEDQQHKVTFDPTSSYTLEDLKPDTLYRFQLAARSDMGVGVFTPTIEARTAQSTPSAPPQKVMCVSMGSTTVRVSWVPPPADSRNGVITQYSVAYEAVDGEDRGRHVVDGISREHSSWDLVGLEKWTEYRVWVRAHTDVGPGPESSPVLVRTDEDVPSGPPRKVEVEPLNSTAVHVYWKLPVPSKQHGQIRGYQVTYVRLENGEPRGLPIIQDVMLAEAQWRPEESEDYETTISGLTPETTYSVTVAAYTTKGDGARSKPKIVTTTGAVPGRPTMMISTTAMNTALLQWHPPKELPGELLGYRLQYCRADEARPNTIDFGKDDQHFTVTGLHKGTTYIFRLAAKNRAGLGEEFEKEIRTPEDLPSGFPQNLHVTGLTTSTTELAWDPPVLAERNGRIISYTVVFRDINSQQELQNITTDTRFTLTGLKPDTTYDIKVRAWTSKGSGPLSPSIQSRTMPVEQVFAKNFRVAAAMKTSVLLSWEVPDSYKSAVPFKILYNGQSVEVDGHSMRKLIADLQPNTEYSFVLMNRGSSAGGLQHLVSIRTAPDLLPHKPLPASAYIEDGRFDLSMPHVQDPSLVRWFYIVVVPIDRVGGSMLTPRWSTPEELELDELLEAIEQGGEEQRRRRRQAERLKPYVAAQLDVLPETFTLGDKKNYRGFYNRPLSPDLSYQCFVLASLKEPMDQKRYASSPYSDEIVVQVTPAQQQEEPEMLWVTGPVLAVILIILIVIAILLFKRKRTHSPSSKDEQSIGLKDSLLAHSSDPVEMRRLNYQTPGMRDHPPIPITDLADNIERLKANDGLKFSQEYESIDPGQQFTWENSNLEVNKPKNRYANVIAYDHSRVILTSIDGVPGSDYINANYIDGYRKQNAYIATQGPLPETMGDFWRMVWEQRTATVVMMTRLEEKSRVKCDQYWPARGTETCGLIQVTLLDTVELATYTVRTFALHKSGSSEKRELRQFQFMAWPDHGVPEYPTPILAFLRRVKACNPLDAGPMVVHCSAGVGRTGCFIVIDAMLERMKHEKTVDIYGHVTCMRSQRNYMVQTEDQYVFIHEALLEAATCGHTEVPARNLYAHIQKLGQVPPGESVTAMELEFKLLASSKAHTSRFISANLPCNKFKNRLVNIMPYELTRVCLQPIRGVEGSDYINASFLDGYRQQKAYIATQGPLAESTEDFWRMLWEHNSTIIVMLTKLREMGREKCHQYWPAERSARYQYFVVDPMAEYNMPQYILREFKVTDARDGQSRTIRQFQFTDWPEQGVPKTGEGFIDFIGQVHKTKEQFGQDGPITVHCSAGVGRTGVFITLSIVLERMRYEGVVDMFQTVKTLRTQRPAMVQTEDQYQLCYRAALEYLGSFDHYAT

[4] = target: Tyrosine-protein phosphatase non-receptor type 6 (Homo sapiens, UniProt P29350); test: Inhibition of SHP-1
Chain of Tyrosine-protein phosphatase non-receptor type 6 (P29350 whole entry): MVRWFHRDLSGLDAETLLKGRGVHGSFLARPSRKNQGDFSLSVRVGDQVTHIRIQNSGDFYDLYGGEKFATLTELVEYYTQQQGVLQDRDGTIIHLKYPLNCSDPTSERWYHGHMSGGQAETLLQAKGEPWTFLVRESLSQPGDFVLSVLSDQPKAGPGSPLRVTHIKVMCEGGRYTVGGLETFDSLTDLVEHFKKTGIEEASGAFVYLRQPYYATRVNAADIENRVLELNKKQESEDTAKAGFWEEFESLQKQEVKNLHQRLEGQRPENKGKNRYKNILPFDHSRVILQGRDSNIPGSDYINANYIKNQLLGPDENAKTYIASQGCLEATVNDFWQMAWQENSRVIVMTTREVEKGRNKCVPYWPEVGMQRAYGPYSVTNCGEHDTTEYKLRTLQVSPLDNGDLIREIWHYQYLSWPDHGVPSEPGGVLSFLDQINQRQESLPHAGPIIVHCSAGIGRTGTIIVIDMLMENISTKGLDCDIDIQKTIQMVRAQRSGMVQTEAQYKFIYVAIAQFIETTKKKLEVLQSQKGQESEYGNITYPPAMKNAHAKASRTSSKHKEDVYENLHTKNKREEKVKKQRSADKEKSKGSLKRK

[5] = target: T3, Tyrosine-protein phosphatase non-receptor type 1 (Homo sapiens) (UniProt P18031); test: Inhibition of recombinant PTP1B using para-nitrophenylphosphate as substrate at 20 ug/mL by high throughput screening assay
T3 sequence (whole entry): T1 sequence (P18031 whole entry)

## O=C1Nc2ccc([N+](=O)[O-])cc2/C1=C\c1ccc(CN2C(=O)C(=O)c3ccccc32)o1
[1]
  IC50: 5.35 µM

## O=C1Nc2ccc(Br)cc2/C1=C\c1ccc(CN2C(=O)C(=O)c3ccccc32)o1
[1]
  IC50: 2.8 µM
[2]
  IC50: 11.5 µM
[3]
  IC50: > 100 µM
[4]
  IC50: > 100 µM

## O=Cc1ccc(CN2C(=O)C(=O)c3cc(Cl)ccc32)o1
[1]
  IC50: > 60 µM

## O=C1Nc2ccc(Cl)cc2/C1=C\c1ccc(CN2C(=O)C(=O)c3cc(Cl)ccc32)o1
[1]
  IC50: 2.3 µM
[2]
  IC50: 18.8 µM
[3]
  IC50: > 100 µM
[4]
  IC50: > 100 µM

## O=Cc1ccc(CN2C(=O)C(=O)c3ccccc32)o1
[1]
  IC50: > 60 µM

## COC(=O)[C@@H]1CCCCN1Cc1ccc(/C=C2/C(=O)N(Cc3ccc(C=O)o3)c3ccc(F)cc32)o1
[5]
  inhibition: 55%

## Cc1ccc2c(c1)C(=O)C(=O)N2Cc1ccc(/C=C2/C(=O)Nc3ccc(C)cc32)o1
[1]
  IC50: 5.7 µM

## Cc1ccc2c(c1)/C(=C\c1ccc(CN3C(=O)C(=O)c4ccccc43)o1)C(=O)N2
[1]
  IC50: 9.82 µM

## O=C1Nc2ccccc2/C1=C\c1ccc(CN2C(=O)C(=O)c3cc(Cl)ccc32)o1
[1]
  IC50: 4.59 µM

## Cc1ccc2c(c1)C(=O)C(=O)N2Cc1ccc(/C=C2/C(=O)Nc3ccc(Cl)cc32)o1
[1]
  IC50: 3.46 µM

## O=C1Nc2ccc(Cl)cc2/C1=C\c1ccc(CN2C(=O)C(=O)c3ccccc32)o1
[1]
  IC50: 4.41 µM

## Cc1ccc2c(c1)/C(=C\c1ccc(CN3C(=O)C(=O)c4cc(Cl)ccc43)o1)C(=O)N2
[1]
  IC50: 3.37 µM

## COC(=O)[C@@H]1CCCCN1Cc1ccc(/C=C2/C(=O)N(Cc3ccc(/C=C4/C(=O)Nc5ccccc54)o3)c3ccc(F)cc32)o1
[5]
  inhibition: 75%

## Cc1ccc2c(c1)C(=O)C(=O)N2Cc1ccc(C=O)o1
[1]
  IC50: > 60 µM

## Cc1ccc2c(c1)C(=O)C(=O)N2Cc1ccc(/C=C2/C(=O)Nc3ccc(Br)cc32)o1
[1]
  IC50: 5.23 µM

## O=C1Nc2ccccc2/C1=C\c1ccc(CN2C(=O)C(=O)c3ccccc32)o1
[1]
  IC50: 7.63 µM

## COC(=O)[C@@H]1CCCCN1Cc1ccc(/C=C2/C(=O)Nc3ccc(F)cc32)o1
[5]
  inhibition: 14%

## Cc1ccc2c(c1)C(=O)C(=O)N2Cc1ccc(/C=C2/C(=O)Nc3ccccc32)o1
[1]
  IC50: 6.71 µM
